Square brackets hold non-standard residues; d marks the D form. Peptide text beside a SMILES is read from it. * marks the point of attachment. Dansyl = CN(C)c1cccc2c(S(=O)(=O)*)cccc12
What was measured:
[1] = Peptide stability in simulated intestinal fluid (SIF); assay type: in vitro ADME; settings: for Rel. Stab.: rank, 1 = most stable to SIF; for remaining at 1 min, 1 mg/ml / remaining at 1 h, 1 mg/ml / remaining at 3 h, 1 mg/ml / remaining at 24 h, 1 mg/ml: simulated intestinal fluid (pancreatin), pH 7.5, 10,000 fold diluted SIF, 37° C.; for remaining at 1 min, 1 mg/ml: read-out: Percent Remaining at: 1 m; for remaining at 1 h, 1 mg/ml: read-out: Percent Remaining at: 1 h; for remaining at 3 h, 1 mg/ml: read-out: Percent Remaining at: 3 h; for remaining at 24 h, 1 mg/ml: read-out: Percent Remaining at: 24 h
Description: The relative stability for ZElanO3l, ZElanO53 and ZElan054 was determined in simulated intestinal fluid (SIF) SIF was made by dissolving 100 mg of pancreatin (Sigma cat#P-1625, lot# 122H0812)in 8.4 ml of phosphate stock solution, adjusting the pH to 7.5 with 0.2N NaOH and adjusting the volume to 10 ml with water.
Peptide (3.25 mg) was dissolved in 3.25 ml of 10,000 fold diluted SIF solution at 37° C. Aliquots (0.7 ml) of the digestion solution were then withdrawn at <1 min, 1 h, 3 h, and 21 h or 24 h. The samples were quickly passed through a syringe filter (Millipore Millex-GV 0.22 μm, part# SLGV025LS, lot# H2BM95250) and 300 μL of the filtered solution was immediately injected onto a Hewlett-Packard HPLC system equipped with a C-8 column (Applied Biosystems column and guard column: column-p/n 0711-0023 Spheri-5 ODS 5 μm, 220×4.6 mm). The products were eluted at 1.5 ml/min using an acetonitrile-water gradient. The major fluorescent peaks were collected, lyopholized and identified by MS analysis.

fixed Caco-2 cells = assay: Inhibition of GST-peptide fusion binding to fixed Caco-2 cells by synthetic peptides; settings: peptide from 100 μg/ml serially diluted; GST fusion 10 μg
Source text: Caco-2 cells were fixed, treated with phenylhydrazine and blocked as described above. […] GST-PAX2 binding was inhibited by ZElan032, ZElan033, and ZElan035.

[2] = system: P100 membrane fractions derived from Caco-2 cells; assay: Dansylated peptide ELISA: relative binding of PAX2 and HAX42 peptides to P100 (ratio to ZElan021); settings: PAX2 peptides, ratio to ZElan021 = 1.00
Summary of the method: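 P100 membrane fraction from Caco-2 cells (normally 100 μg/ml) coated in carbonate buffer pH9.6, blocked with 2% Marvel/PBS, then incubated with dansylated peptides. Detection via anti-mouse HRP conjugate and TMB, OD read at 650nm; binding expressed relative to ZElan021.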

| SMILES | Rel. Stab. [1] | remaining at 1 min, 1 mg/ml [1] [%] | remaining at 1 h, 1 mg/ml [1] [%] | remaining at 3 h, 1 mg/ml [1] [%] | remaining at 24 h, 1 mg/ml [1] [%] | inhibition of GST-P31 binding (fixed Caco-2 cells) | inhibition of GST-PAX2 binding (fixed Caco-2 cells) | Binding value at 20 μg/ml ([2]; first 20 μg/ml column) | Binding value at 50 μg/ml ([2]; first 50 μg/ml column) | Binding value at 20 μg/ml ([2]; second 20 μg/ml column) | Binding value at 50 μg/ml ([2]; second 50 μg/ml column) |
| --- | --- | --- | --- | --- | --- | --- | --- | --- | --- | --- | --- |
| C[C@@H](O)[C@H](NC(=O)[C@@H](N)CCCCNS(=O)(=O)c1cccc2c(N(C)C)cccc12)C(=O)N[C@@H](CCCNC(=N)N)C(=O)N[C@@H](CCCCN)C(=O)N[C@@H](CO)C(=O)N[C@@H](CO)C(=O)N[C@@H](CCCNC(=N)N)C(=O)N[C@@H](CO)C(=O)N[C@@H](CC(N)=O)C(=O)N1CCC[C@H]1C(=O)N[C@@H](CCCNC(=N)N)C(=O)NCC(=O)N[C@@H](CCCNC(=N)N)C(=O)N[C@@H](CCCNC(=N)N)C(=O)N[C@@H](Cc1c[nH]cn1)C(=O)N1CCC[C@H]1C(=O)NCC(N)=O [ZElan031] (H-K(Dansyl)TRKSSRSNPRGRRHPG-NH2) | 3 | 100 | 38.7 | 0 | 0 | inhibited | – | – | – | – | – |
| C[C@@H](O)[C@H](NC(=O)[C@@H](N)CCCCNS(=O)(=O)c1cccc2c(N(C)C)cccc12)C(=O)N[C@@H](CCCNC(=N)N)C(=O)N[C@@H](CCCCN)C(=O)N[C@@H](CO)C(=O)N[C@@H](CO)C(=O)N[C@H](CCCNC(=N)N)C(=O)N[C@@H](CO)C(=O)N[C@@H](CC(N)=O)C(=O)N1CCC[C@H]1C(=O)N[C@@H](CCCNC(=N)N)C(=O)NCC(=O)N[C@H](CCCNC(=N)N)C(=O)N[C@@H](CCCNC(=N)N)C(=O)N[C@@H](Cc1c[nH]cn1)C(=O)N1CCC[C@H]1C(=O)NCC(N)=O [ZElan054, H2N—K(dns)TRKSSrSNPRGrRHPG—CONH2] (H-K(Dansyl)TRKSS[dR]SNPRG[dR]RHPG-NH2) | 2 | 97.4 | 58.2 | 11.6 | 2.7 | inhibited | – | – | – | – | – |
| CC(C)C[C@H](NC(=O)[C@H](CCCNC(=N)N)NC(=O)[C@H](CCCNC(=N)N)NC(=O)[C@H](CC(N)=O)NC(=O)[C@H](Cc1c[nH]cn1)NC(=O)[C@H](CO)NC(=O)[C@H](CO)NC(=O)[C@H](Cc1c[nH]cn1)NC(=O)[C@H](CCCCN)NC(=O)[C@H](C)NC(=O)[C@H](CC(N)=O)NC(=O)[C@@H](NC(=O)[C@@H](N)CCCCNS(=O)(=O)c1cccc2c(N(C)C)cccc12)[C@@H](C)O)C(=O)N[C@@H](CCCNC(=N)N)C(=O)N[C@H](C(=O)N[C@@H](CCCNC(=N)N)C(N)=O)[C@@H](C)O [ZElan033] (H-K(Dansyl)TNAKHSSHNRRLRTR-NH2) | – | – | – | – | – | – | inhibited | 0.35 | 0.80 | 1.57 | 0.66 |
| CC(C)C[C@H](NC(=O)[C@H](CCCNC(=N)N)NC(=O)[C@H](CCCNC(=N)N)NC(=O)[C@H](CC(N)=O)NC(=O)[C@H](Cc1c[nH]cn1)NC(=O)[C@H](CO)NC(=O)[C@H](CO)NC(=O)[C@@H](N)CCCCNS(=O)(=O)c1cccc2c(N(C)C)cccc12)C(=O)N[C@@H](CCCNC(=N)N)C(=O)N[C@H](C(=O)N[C@@H](CCCNC(=N)N)C(N)=O)[C@@H](C)O [ZElan035] (H-K(Dansyl)SSHNRRLRTR-NH2) | – | – | – | – | – | – | inhibited | 0.12 | 0.81 | 0.43 | 0.77 |

Reference: patent US6703362B1, “Random peptides that bind to gastro-intestinal tract (GIT) transport receptors and related methods” (Cytogen Corporation, priority 1997, dated 2004)
